Assay [1] concerns Y133 ptk2Δ. Type of assay: cell-based, S. cerevisiae. The note with it: relative to Y133, p<0.01. How it is done: Compounds, initial screening, and IC50 determination: Compounds tested were purchased from Sigma-Aldrich. […] Plates were read on a TECAN M1000 over a 48 hour growth period. […] When presented, IC50 values for growth inhibition were calculated from triplicate 8 point dose curves and SigmaPlot 12.0. When presented, error bars are mean±standard error (S.E.) of at least 3 replicates.

Assay [2] concerns Y133 ptk2Δ. It is filed as cell-based, S. cerevisiae. The conditions noted are these: 1% BMIM-Cl, aerobic and anaerobic conditions. The source says: We deleted PTK2 in our xylose fermenting yeast GLBRCY133 (Parreiras et al.,2014).
The subject of a further assay is S. cerevisiae. Put plainly: Dose curve for chemical genomic profiling concentration. The note with it: 88 μg/ml, YP-galactose media, 24 hours. It is filed as cell-based. As for the experimental part: Chemical genomic analysis: Chemical genomic analysis of poacic acid was performed as described as described previously (Fung et al., 2013; Parsons et al., 2006). The tested yeast deletion collection had 4000 strains using the genetic background described in Andrusiak (2012). The optimal inhibitory concentration of poacic acid for chemical genomic profiling (70-80% growth versus solvent control in YP-galactose media after 24 hours of growth) was determined using an 8 point dose curve. A concentration of 88 μg/ml inhibited growth within this range. 200 μl cultures of the pooled, deletion collection of S. cerevisiae deletion mutants were grown with 88 μg/ml poacic acid or a DMSO control in triplicate for 48 hours at 30° C. Genomic DNA was extracted using the Epicentre MasterPure™ Yeast DNA purification kit. Mutant-specific molecular barcodes were amplified with specially designed multiplex primers (Smith et al., 2009). The barcodes were sequenced using an Illumina MiSeq. Three replicates of each condition (poacic acid vs. DMSO) were sequenced. One DMSO control was lost due to poor sequencing reads. The barcode counts for each yeast deletion mutant in the presence of poacic acid were normalized against the DMSO control conditions to define sensitivity or resistance of individual strains. […]

As to `CCCCn1cc[n+](C)c1.[Cl-]` [BMIM-Cl, 1-butyl-3-methylimidazolium chloride], the “tolerance conferred by deletion of PTK2 in Y133” value with Y133 ptk2Δ [1] is “significantly greater tolerance”. In addition, the “tolerance and fermentative capacity of PTK2 deletion” value in the assay on Y133 ptk2Δ [2] is “greater tolerance and has greater fermentative capacity”.

With `CC(=O)[O-].CCn1cc[n+](C)c1` [EMIM-Ac, 1-ethyl-3-methylimidazolium acetate], in the assay on Y133 ptk2Δ [1], the “tolerance conferred by deletion of PTK2 in Y133” value is recorded as “significantly greater tolerance”.

In the case of poacic acid, the “growth versus solvent control” value with S. cerevisiae is given as 70-80%.
